Read-outs that look alike come from different tables or passages of the source.
How the values were obtained:
[1] = molecular target: T1, M4 muscarinic receptor (Homo sapiens, UniProt P08173); assay: Functional mobilization of intracellular calcium (FLIPR) in M4-CHO cells; type: cell-based
T1 construct: expressed in transfected cells; host or cells: CHO (M4-CHO)
T1 sequence (P08173 1-479): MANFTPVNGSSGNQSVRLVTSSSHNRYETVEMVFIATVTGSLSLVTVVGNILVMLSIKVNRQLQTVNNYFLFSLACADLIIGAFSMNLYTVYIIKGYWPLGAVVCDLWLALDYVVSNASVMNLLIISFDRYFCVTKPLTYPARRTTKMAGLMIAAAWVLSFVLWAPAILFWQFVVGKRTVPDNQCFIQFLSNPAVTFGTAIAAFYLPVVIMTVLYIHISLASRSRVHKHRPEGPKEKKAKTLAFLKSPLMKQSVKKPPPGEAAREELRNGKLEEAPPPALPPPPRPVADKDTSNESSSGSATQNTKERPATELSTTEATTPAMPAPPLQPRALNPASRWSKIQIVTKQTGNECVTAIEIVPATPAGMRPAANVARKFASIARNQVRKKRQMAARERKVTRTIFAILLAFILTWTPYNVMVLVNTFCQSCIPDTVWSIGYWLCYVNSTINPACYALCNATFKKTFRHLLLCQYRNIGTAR
Summary of the method: (§1)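 Steps: seed M1- or M4-CHO cells 18-24 hrs ahead; load calcium dye with 1 mM probenecid; add test compound (0.5% DMSO final), either alone for agonism or 15 min before EC80 carbachol for inhibition; record FLIPR fluorescence for 60 sec.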

[2] = molecular target: T2, M1 muscarinic receptor (Homo sapiens, UniProt P11229); assay: Functional mobilization of intracellular calcium (FLIPR) in M1-CHO cells; type: cell-based
T2 construct: expressed in transfected cells; host or cells: CHO (M1-CHO)
T2 sequence (P11229 1-460): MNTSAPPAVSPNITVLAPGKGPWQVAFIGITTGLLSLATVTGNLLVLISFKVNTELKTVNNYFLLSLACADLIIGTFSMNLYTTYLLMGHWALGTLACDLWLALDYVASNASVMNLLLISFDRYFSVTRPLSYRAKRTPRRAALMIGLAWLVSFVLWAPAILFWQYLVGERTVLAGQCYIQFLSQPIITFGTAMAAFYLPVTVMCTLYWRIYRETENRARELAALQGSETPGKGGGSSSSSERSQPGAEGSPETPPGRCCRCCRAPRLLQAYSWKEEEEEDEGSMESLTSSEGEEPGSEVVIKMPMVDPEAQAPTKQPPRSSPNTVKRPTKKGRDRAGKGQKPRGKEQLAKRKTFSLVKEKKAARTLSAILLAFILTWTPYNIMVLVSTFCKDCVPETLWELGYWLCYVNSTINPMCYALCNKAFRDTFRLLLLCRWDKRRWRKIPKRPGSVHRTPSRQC
Summary of the method: as §1

[3] = M4 receptor, calcium mobilization
[4] = M4 receptor, calcium mobilization, read-out: M4 Efficacy
[5] = M1 receptor, calcium mobilization
[6] = M1 receptor, calcium mobilization, read-out: M1 Efficacy
[7] = Table 4, 100% efficacy is the maximum response obtained with the Carbachol control
[8] = Table 4, modulating M4 receptor
[9] = Table 4, modulating M1 receptor
[10] = M4-CHO cells, calcium mobilization (FLIPR)
[11] = M4-CHO cells, calcium mobilization (FLIPR), read-out: M4 Efficacy
[12] = M1-CHO cells, calcium mobilization (FLIPR)
[13] = M1-CHO cells, calcium mobilization (FLIPR), read-out: M1 Efficacy
[14] = Table 4, M4 receptor, calcium mobilization (FLIPR)
[15] = Table 4, M1 receptor, calcium mobilization (FLIPR)

SMILES | M4 Activity [1, 3] | Emax [1, 4] [%] | M1 Activity [2, 5] | Emax [2, 6] [%] | Emax [1, 7] [%] | Emax [2, 7] [%] | other results
O=C(C1CC1)N1CC2(CCN(C3CC4CCC(C3)N4C(=O)O[C@@H]3CCOC3)CC2)c2cc(F)ccc21 (stereo partly shown) [compound 87] | x (activity was measured to be greater than 1.0 μM) | < 65 | xxx (activity was measured to be less than 0.1 μM) | 65 to 85 | – | – | –
CCOC(=O)N1C2CCC1CC(N1CCC3(CC1)CN(C(C)=O)c1ccc(C(C)C)cc13)C2 (stereo not shown) [compound 606] | – | – | – | – | 25 to 100 | 25 to 100 | M4 Activity [1, 8]: xxx (activity was measured to be less than 2.0 μM); M1 Activity [2, 9]: xxx (activity was measured to be less than 2.0 μM)
CCOC(=O)N1CCC(N2CCC3(CC2)CN(C(=O)N(CC)CC)c2ccc(F)cc23)CC1 [compound 223] | x (activity was measured to be greater than 1.0 μM) | < 65 | x (activity was measured to be greater than 1.0 μM) | < 65 | – | – | –
CC(=O)N1CC2(CCN(CC3CCN(C(=O)OC(C)C)CC3)CC2)c2cc(C)ccc21 [compound 404] | – | – | – | – | – | – | EC50 [1, 10]: > 1 µM; Emax [1, 11]: < 65%; EC50 [2, 12]: 0.1 to 1 µM; Emax [2, 13]: < 65%
CC(=O)N1CC2(CCN(CC3CCN(C(=O)O[C@@H]4CCOC4)CC3)CC2)c2cc(F)ccc21 [compound 14] | xxx (activity was measured to be less than 0.1 μM) | > 85 | xxx (activity was measured to be less than 0.1 μM) | 65 to 85 | – | – | –
CC(=O)N[C@H]1CC2(CCN(CC(=O)N3CC=CC3)CC2)c2ccccc21 [compound 533] | – | – | – | – | < 25 | < 25 | M4 Activity [1, 8]: x (activity was measured to be greater than 5.0 μM); M1 Activity [2, 9]: x (activity was measured to be greater than 5.0 μM)
CN(C)C(=O)CN1CC2(CCN(C[C@@H]3C[C@H]4C=CC3C4)CC2)c2cc(F)ccc21 [compound 815] | – | – | – | – | 25 to 100 | 25 to 100 | M4 Activity [1, 14]: xxx (activity was measured to be less than 2.0 μM); M1 Activity [2, 15]: xx (activity was measured to be between 2.0 μM and 5.0 μM)
Cc1ccc2c(c1)C1(CCN(CC3CC4CCC3C4)CC1)CN2C(=O)OC(C)(C)C (stereo not shown) [compound 382] | – | – | – | – | – | – | EC50 [1, 10]: > 1 µM; Emax [1, 11]: 65 to 85%; EC50 [2, 12]: < 0.1 µM; Emax [2, 13]: 65 to 85%
CC(=O)N1CC2(CCN(C3CCN(c4nccs4)CC3)CC2)c2ccccc21 [compound 894] | – | – | – | – | < 25 | 25 to 100 | M4 Activity [1, 14]: x (activity was measured to be greater than 5.0 μM); M1 Activity [2, 15]: x (activity was measured to be greater than 5.0 μM)
CC(=O)N1CC2(CCN(C3CCN(C(=O)OCC4CC4)CC3)CC2)c2ccccc21 [compound 724] | – | – | – | – | < 25 | 25 to 100 | M4 Activity [1, 8]: x (activity was measured to be greater than 5.0 μM); M1 Activity [2, 9]: xx (activity was measured to be between 2.0 μM and 5.0 μM)
CCCOC(=O)N1C2CCC1CC(N1CCC3(CC1)CN(C(=O)C1CCC1)c1ccc(F)cc13)C2 (stereo not shown) [compound 302] | x (activity was measured to be greater than 1.0 μM) | < 65 | x (activity was measured to be greater than 1.0 μM) | < 65 | – | – | –
COCCOC(=O)N1CC2(CCN(C3CC4CCC(C3)N4C(=O)O[C@H]3CCOC3)CC2)c2cc(F)ccc21 (stereo partly shown) [compound 80] | xx (activity was measured to be between 0.1 μM and 1.0 μM) | < 65 | xx (activity was measured to be between 0.1 μM and 1.0 μM) | < 65 | – | – | –
O=C(OC1CCCC1)N1C2CCC1CC(N1CCC3(CC1)COc1ccc(F)cc13)C2 (stereo not shown) [compound 133] | xx (activity was measured to be between 0.1 μM and 1.0 μM) | 65 to 85 | xxx (activity was measured to be less than 0.1 μM) | > 85 | – | – | –
CC(=O)N1CC2(CCN(C3CCN(C(=O)OC4CCC4)CC3)CC2)c2cc(F)ccc21 [compound 140] | xxx (activity was measured to be less than 0.1 μM) | > 85 | xxx (activity was measured to be less than 0.1 μM) | > 85 | – | – | –
CC(=O)N[C@H]1CC2(CCN(C3C[C@H]4CC[C@@H]3C4)CC2)c2ccccc21 (stereo partly shown) [compound 158] | x (activity was measured to be greater than 1.0 μM) | > 85 | xxx (activity was measured to be less than 0.1 μM) | > 85 | – | – | –
CCOC(=O)N1CCC(N2CCC3(CC2)CN(C2CCCC2=O)c2ccc(F)cc23)CC1 (stereo not shown) [compound 756] | – | – | – | – | 25 to 100 | 25 to 100 | M4 Activity [1, 8]: xxx (activity was measured to be less than 2.0 μM); M1 Activity [2, 9]: xxx (activity was measured to be less than 2.0 μM)
CC(=O)N[C@H]1CC2(CCN(CC(=O)N3CCC(=O)N3)CC2)c2ccccc21 [compound 780] | – | – | – | – | < 25 | < 25 | M4 Activity [1, 8]: x (activity was measured to be greater than 5.0 μM); M1 Activity [2, 9]: x (activity was measured to be greater than 5.0 μM)
CC#CCOC(=O)N1CC[C@H](CN2CCC3(CC2)CN(C(C)=O)c2ccccc23)C1 [compound 637] | – | – | – | – | 25 to 100 | > 100 | M4 Activity [1, 8]: xxx (activity was measured to be less than 2.0 μM); M1 Activity [2, 9]: xxx (activity was measured to be less than 2.0 μM)
CCOC(=O)N1CCC(N2CCC3(CC2)CN(C(C)=O)c2ccc(-c4ccoc4)cc23)CC1 [compound 128] | xx (activity was measured to be between 0.1 μM and 1.0 μM) | < 65 | xxx (activity was measured to be less than 0.1 μM) | < 65 | – | – | –
CCOC(=O)N1CCC(N2CCC3(CC2)CN(C(C)=O)c2ccc(S(C)(=O)=O)cc23)CC1 [compound 719] | – | – | – | – | < 25 | 25 to 100 | M4 Activity [1, 8]: x (activity was measured to be greater than 5.0 μM); M1 Activity [2, 9]: xxx (activity was measured to be less than 2.0 μM)
COCCOC(=O)N1CCCC(N2CCC3(CC2)CN(C(=O)N(C)C)c2ccc(F)cc23)CC1 (stereo not shown) [compound 954] | – | – | – | – | 25 to 100 | 25 to 100 | M4 Activity [1, 14]: xxx (activity was measured to be less than 2.0 μM); M1 Activity [2, 15]: xxx (activity was measured to be less than 2.0 μM)
CCOC(=O)N1CCC(CN2CCC3(CC2)CN(C(C)=O)c2ccc(F)cc23)CC1 [compound 60] | x (activity was measured to be greater than 1.0 μM) | 65 to 85 | xx (activity was measured to be between 0.1 μM and 1.0 μM) | 65 to 85 | – | – | –
CCOC(=O)N1CCC(N2CCC3(CC2)CN(C2CCCCC2=O)c2ccc(F)cc23)CC1 (stereo not shown) [compound 751] | – | – | – | – | 25 to 100 | 25 to 100 | M4 Activity [1, 8]: xxx (activity was measured to be less than 2.0 μM); M1 Activity [2, 9]: xxx (activity was measured to be less than 2.0 μM)
O=C(O[C@H]1CCOC1)N1C2CCC1CC(N1CCC3(CC1)C(=O)Nc1ccccc13)C2 (stereo partly shown) [compound 301] | x (activity was measured to be greater than 1.0 μM) | < 65 | x (activity was measured to be greater than 1.0 μM) | < 65 | – | – | –
CCOC(=O)N1C2CCC1CC(N1CCC3(CC1)CN(C(C)=O)c1c(F)cc(F)cc13)C2 (stereo not shown) [compound 897] | – | – | – | – | 25 to 100 | 25 to 100 | M4 Activity [1, 14]: xxx (activity was measured to be less than 2.0 μM); M1 Activity [2, 15]: xxx (activity was measured to be less than 2.0 μM)
CCOC(=O)N1C2CCC1CC(N1CCC3(CC1)CC(=O)c1ccc(Cl)cc13)C2 (stereo not shown) [compound 836] | – | – | – | – | 25 to 100 | 25 to 100 | M4 Activity [1, 14]: xxx (activity was measured to be less than 2.0 μM); M1 Activity [2, 15]: xxx (activity was measured to be less than 2.0 μM)
CC(=O)N1CC2(CCN(C3CCN(C(=O)OCCF)C3)CC2)c2cc(F)ccc21 (stereo not shown) [compound 394] | – | – | – | – | – | – | EC50 [1, 10]: 0.1 to 1 µM; Emax [1, 11]: < 65%; EC50 [2, 12]: < 0.1 µM; Emax [2, 13]: < 65%
CC(=O)NC1CC2(CCN(C[C@@H]3C[C@H]4C=C[C@H]3C4)CC2)c2ccccc21 (stereo partly shown) [compound 408] | – | – | – | – | – | – | EC50 [1, 10]: < 0.1 µM; Emax [1, 11]: 65 to 85%; EC50 [2, 12]: < 0.1 µM; Emax [2, 13]: 65 to 85%

— patent publication US7786141B2 (Vertex Pharmaceuticals Incorporated, priority 2004, dated 2010)
